Tests used:
Format in all cases: cell-based
HTN-EZH2 = test: O-GlcNAc inducing effects on HTN-EZH2; conditions: HTN-EZH2:fOGT=1:0.01
Text: FIG. 13: Evaluation of O-GlcNAc inducing effects of OGTAC-1/2/3 on HTN-EZH2 and dose-dependent effect of OGTAC-1 on HTN-EZH2. In the treatment group, transfection ratio is HTN-EZH2:fOGT:=1:0.01.
As there are >20,000 commercially available plasmids for HaloTag-fused human proteins,46 OGTACs can be rapidly tested in a wide range of POIs, enabling time- and dose-dependent manipulation of their specific O-GlcNAcylation level.

[1] = target: T1, fOGT (FKBP12^F36V fused-OGT) (Homo sapiens, UniProt P62942, F37V); test: Intact cell CETSA (fOGT engagement); conditions: HEK-293T, 4 h, HEK293T HTN-BRD4:fOGT=1:0.05
T1 construct: expressed in transfected cells; host or cells: HEK293T
Method: For fOGT engagement, we established a cellular thermal shift assay (CETSA). Using same co-expressing system, we treated cells with OGTAC 1-3 for 4 h, and conducted heat challenge to intact cells at a series of temperature to determine the corresponding melting temperature (Tm). […] HEK293T cells (2.5×10^6 cells) were seeded in 10 cm culture dish overnight for attachment. On the next day, cells were transfected with HTN-BRD4:fOGT=1:0.05 plasmid for 24 hours until ˜90% confluence. After treatment with 5 μM compounds or DMSO, cells were collected and washed with PBS. Subsequently, cells were re-suspended in 500 μL PBS and equally divided into 50 μL aliquots. The tubes were subjected to heat challenge at 37-53° C. for 5 mins, followed by cooling on ice. Cells were lysed by three repeated freeze-thaw cycles with liquid nitrogen and water bath. Lastly, cells were centrifuged at 14000 RPM for 15 mins and supernatants were collected for Western Blot analysis.

endogenous CK2α = test: Chemoenzymatic labelling and mass-shift assay, endogenous CK2α; conditions: OGTAC-1 treatment
HTN-BRD4 and 0tfOGT = target: T2, HTN-BRD4 and 0tfOGT (Homo sapiens, UniProt O60885+P62942, F37V); test: Washout / reversibility study, HTN-BRD4:0tfOGT; conditions: 500 nM 4 h pretreatment, then fresh media
T2 construct: HaloTag fragment; 0TPR(463-1046)-; expressed in transfected cells; host or cells: HEK293T
Method: (§1) FIGS. 7A-7E: Specificity and reversibility of OGTAC strategy. […] (B), Constructs of fOGT with 13.5 (rounded to 13) TPR and 0TPR-fOGT (0tfOGT). (C). […] (D), Dose-dependent O-GlcNAcylation profile of HTN-BRD4 by OGTAC-4 treatment. HEK293T cells expressing HTN-BRD4:0tfOGT=1:0.05 were treated with an increasing concentration of OGTAC-4 for 4 h. Then, the O-GlcNAcylation level of HTN-BRD4 was assessed by immunoblot after IP using BRD4 antibody. All quantifications are shown as mean±s.e.m. of n=3 biologically independent experiments. (E), Reversible effect of OGTAC-4 on HTN-BRD4 can be achieved by addition of AP1867. HEK293T cells expressing HTN-BRD4:0tfOGT=1:0.05 were pretreated with OGTAC-4 (500 nM) or DMSO for 4 h, and culturing media were replaced by fresh media with DMSO or AP1867 (50 μM) for the indicated time. The quantifications in right panel were conducted by the normalizing the fold-change (OGTAC-4/DMSO) for each post-washout time point to the value of 4 h pre-treatment. All quantifications are shown as mean±s.e.m. of 3 independent biological repeats. Statistical significance was calculated with ordinary one-way ANOVA comparing samples with different transfection conditions or OGTAC-treatment. ns, p≥0.05; *p<0.05; **p<0.01; ***p<0.001; ****p<0.0001.
To assess the potential application of our OGTAC strategy in downstream biological studies, we investigated the reversibility of OGTACs. […] Additionally. the O-GlcNAc level of BRD4 returned to baseline after 6 hours of AP1867 treatment, confirming the reversibility of the induction effect (FIG. 7E).
For each IP reaction, 2.2×10^6 HEK293T cells were seed in 10 cm dish. After cells attached, transfection reagents and plasmids were prepared and added in DMEM. After 24 h transfection, media were replaced by fresh warm complete media with DMSO or probes. For washout study, after 4 h treatment, media with DMSO or OGTAC-4 (500 nM) were replaced by fresh media with DMSO or AP1867 (50 μM) for further incubation. After certain time of OGTACs treatment, cells were collected by cold PBS and lysed by 200 μL complete IP lysis buffer. […]

HTN-BRD4 = target: T3, HTN-BRD4 (Homo sapiens, UniProt O60885+P62942, F37V); test: IP-WB of HTN-BRD4 O-GlcNAcylation with truncated 0tfOGT; conditions: 0tfOGT:HTN-BRD4 system, 4 h
T3 construct: HaloTag fragment; expressed in transfected cells; host or cells: HEK293T
Method: as §1
We next applied OGTAC-4 to the 0tfOGT:HTN-BRD4 system, resulting in an 5-fold increase in O-GlcNAc level on BRD4. […]

T2 sequence (P62942 whole entry F37V, stated change not applied, other chains not shown, the tested form may be a part): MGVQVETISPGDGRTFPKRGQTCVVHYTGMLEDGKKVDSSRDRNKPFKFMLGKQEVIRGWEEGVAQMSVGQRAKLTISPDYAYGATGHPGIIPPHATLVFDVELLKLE
T3 sequence (P62942 whole entry F37V, stated change not applied, other chains not shown, the tested form may be a part): as above
T1 sequence (P62942 whole entry F37V, the tested form may be a part): as the sequence (P62942 whole entry F37V, stated change not applied, other chains not shown, the tested form may be a part) above

Structure (SMILES)	O-GlcNAcylation-inducing effect on HTN-EZH2 (HTN-EZH2)	ΔTm at 5 µM [1]	O-GlcNAcylation level of endogenous CK2α (endogenous CK2α)	O-GlcNAc induction and ternary complex formation after washout (HTN-BRD4 and 0tfOGT)	fold increase in O-GlcNAc level on BRD4 (HTN-BRD4)
CC[C@H](C(=O)N1CCCC[C@H]1C(=O)O[C@H](CCc1ccc(OC)c(OC)c1)c1cccc(OCC(=O)NCCOCCOCCCCCCCl)c1)c1cc(OC)c(OC)c(OC)c1 [OGTAC-1, (R)-1-(3-(2-((2-(2-((6-chlorohexyl)oxy)ethoxy)ethyl)amino)-2-oxoethoxy)phenyl)-3-(3,4-dimethoxyphenyl)propyl (S)-1-((S)-2-(3,4,5-trimethoxyphenyl)butanoyl) piperidine-2-carboxylate]	highest O-GlcNAcylation-inducing effects among the three OGTACs	1.4 °C	did not alter	–	–
CC[C@H](C(=O)N1CCCC[C@H]1C(=O)O[C@H](CCc1ccc(OC)c(OC)c1)c1cccc(OCC(=O)NCCCCCCNC(=O)C[C@@H]2N=C(c3ccc(Cl)cc3)c3c(sc(C)c3C)-n3c(C)nnc32)c1)c1cc(OC)c(OC)c(OC)c1 [OGTAC-4, (R)-1-(3-(2-((6-(2-((S)-4-(4-chlorophenyl)-2,3,9-trimethyl-6H-thieno[3,2-f[]8 1,2,4]triazolo[4,3-a][1,4]diazepin-6-yl)acetamido)hexyl)amino)-2-oxoethoxy)phenyl)-3-(3,4-dimethoxyphenyl)propyl (S)-1-((S)-2-(3,4,5-trimethoxyphenyl)butanoyl)piperidine-2-carboxylate]	–	–	–	persisted post-washout	5 fold

Reference: US20250035641A1, “COMPOSITIONS AND METHODS RELATED TO PROTEIN LABELING” (The Chinese University of Hong Kong, priority 2023, published 2025)
